Results: patent US8148373B2, “Compounds” (AstraZeneca AB, priority 2008, dated 2012)

Columns and labels:
[1] = biological target: T1, human muscarinic acetylcholine M3 receptor (M3-ACh) (Homo sapiens, UniProt P20309); experiment: Muscarinic 3 Receptor Binding Assay ([3H]NMS competition, SPA); conditions: [3H]NMS 0.1 nM, CHO-K1 cell membranes, 16 hours at room temperature; read-out: M3 pIC50 (converted)
T1 construct: expressed in transfected cells; host or cells: CHO-K1 (Chinese Hamster Ovary) cell membranes
Procedure: Muscarinic 3 Receptor Binding Assay
The affinity (pIC50) of compounds binding to the M3 receptor is determined by competition binding of [^3H]N-methyl scopolamine (NMS) to CHO-K1 (Chinese Hamster Ovary) cell membranes expressing the human muscarinic acetylcholine M3 receptor (M3-ACh) in a scintillation proximity assay (SPA) format.
SPA beads are precoated with membranes and then incubated at 2 mg of beads per well with serial dilutions of compounds of the invention, [^3H]NMS at 0.1 nM, quarter Kd (experimentally determined dissociation constant) and assay buffer (20 mM HEPES pH 7.4 containing 5 mM MgCl2). The assay is conducted in a final volume of 200 μL, in the presence of 1% (v/v) dimethyl sulphoxide (DMSO). Total binding of [^3H]NMS is determined in the absence of competing compound and non-specific binding of [^3H]NMS is determined in the presence of 1 μM atropine. The plates are incubated for 16 hours at room temperature and then read on Wallac Microbeta™ using a normalised ^3H protocol. The pIC50, defined as the negative logarithm of the molar concentration of compound required for 50% reduction in specific [^3H]-NMS binding, is determined.

[2] = biological target: T2, Adrenergic β2 (H292 cells) (Homo sapiens, UniProt P07550); experiment: Assay for Adrenergic β2 Mediated cAMP Production (concentration response, AlphaScreen cAMP detection); assay type: cell-based; conditions: for EC50: cAMP production, 60 minutes at room temperature, 300 μM rolipram, read-out: β2 pEC50 (converted); for β2 Intrinsic activity: fraction relative to the maximum activity determined for formoterol
T2 construct: endogenous in cells; host or cells: H292 cells
Procedure: Assay for Adrenergic β2 Mediated Camp Production
H292 cells are grown in 225 cm2 flasks incubator at 37° C., 5% CO2 in RPMI medium containing 10% (v/v) FBS (foetal bovine serum) and 2 mM L-glutamine.
Adherent H292 cells are removed from tissue culture flasks by treatment with Accutase™ cell detachment solution for 15 minutes. Flasks are incubated for 15 minutes in a humidified incubator at 37° C., 5% CO2. Detached cells are re-suspended in RPMI media (containing 10% (v/v) FBS and 2 mM L-glutamine) at 0.1×10^6 cells per mL. 10000 cells in 100 μL are added to each well of a tissue-culture-treated 96-well plate and the cells incubated overnight in a humidified incubator at 37° C., 5% CO2. The culture media is removed and cells are washed twice with 100 μL assay buffer and replaced with 50 μL assay buffer (HBSS solution containing 10 mM HEPES pH7.4 and 5 mM glucose). Cells are rested at room temperature for 20 minutes after which time 25 μL of rolipram (1.2 mM made up in assay buffer containing 2.4% (v/v) dimethylsulphoxide) is added. Cells are incubated with rolipram for 10 minutes after which time test compounds are added and the cells are incubated for 60 minutes at room temperature. The final rolipram concentration in the assay is 300 μM and final vehicle concentration is 1% (v/v) dimethylsulphoxide. The reaction is stopped by removing supernatants, washing once with 100 μL assay buffer and replacing with 50 μL lysis buffer. The cell monolayer is frozen at −80° C. for 30 minutes (or overnight).
AlphaScreen™ cAMP Detection
The concentration of cAMP (cyclic adenosine monophosphate) in the cell lysate is determined using AlphaScreen™ methodology. The frozen cell plate is thawed for 20 minutes on a plate shaker then 10 μL of the cell lysate is transferred to a 96-well white plate. 40 μL of mixed AlphaScreen™ detection beads pre-incubated with biotinylated cAMP, is added to each well and the plate incubated at room temperature for 3 hours in the dark. The AlphaScreen™ signal is measured using an EnVision spectrophotometer (Perkin-Elmer Inc.) with the recommended manufacturer's settings. cAMP concentrations are determined by reference to a calibration curve determined in the same experiment using standard cAMP concentrations. Concentration response curves for agonists are constructed and data is fitted to a four parameter logistic equation to determine both the pEC50 and Intrinsic Activity. Intrinsic Activity is expressed as a fraction relative to the maximum activity determined for formoterol in each experiment.

T2 sequence (P07550 whole entry): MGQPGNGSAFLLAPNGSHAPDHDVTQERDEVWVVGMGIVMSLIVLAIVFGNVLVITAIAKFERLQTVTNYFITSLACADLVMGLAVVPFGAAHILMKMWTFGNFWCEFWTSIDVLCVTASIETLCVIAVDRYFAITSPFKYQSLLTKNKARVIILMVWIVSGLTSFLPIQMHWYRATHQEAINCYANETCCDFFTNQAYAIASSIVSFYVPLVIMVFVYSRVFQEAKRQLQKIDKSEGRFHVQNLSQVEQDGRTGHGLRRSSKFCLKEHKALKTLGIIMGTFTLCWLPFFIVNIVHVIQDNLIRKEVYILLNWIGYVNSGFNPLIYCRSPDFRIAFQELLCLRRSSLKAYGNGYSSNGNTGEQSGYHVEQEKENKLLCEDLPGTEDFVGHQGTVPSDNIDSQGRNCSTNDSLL
T1 sequence (P20309 whole entry): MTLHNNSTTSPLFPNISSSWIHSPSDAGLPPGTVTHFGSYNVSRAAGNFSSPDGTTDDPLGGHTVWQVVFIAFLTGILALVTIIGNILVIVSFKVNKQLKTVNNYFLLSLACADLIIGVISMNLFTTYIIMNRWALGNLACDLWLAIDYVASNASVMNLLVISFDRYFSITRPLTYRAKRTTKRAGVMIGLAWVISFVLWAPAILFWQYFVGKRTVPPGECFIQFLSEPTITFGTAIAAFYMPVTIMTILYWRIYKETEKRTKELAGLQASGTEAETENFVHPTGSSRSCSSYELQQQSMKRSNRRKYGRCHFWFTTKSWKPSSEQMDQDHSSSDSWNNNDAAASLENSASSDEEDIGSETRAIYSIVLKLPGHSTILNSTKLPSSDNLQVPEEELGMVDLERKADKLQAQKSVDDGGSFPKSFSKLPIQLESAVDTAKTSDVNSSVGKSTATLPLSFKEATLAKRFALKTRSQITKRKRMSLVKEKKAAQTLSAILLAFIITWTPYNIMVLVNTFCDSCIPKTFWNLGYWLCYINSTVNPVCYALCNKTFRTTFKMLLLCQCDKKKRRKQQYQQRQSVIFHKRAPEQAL

Compound	IC50 [1]	EC50 [2]	β2 Intrinsic activity [2]
Cc1ccc(C(=O)N2CCOC3(CCN(Cc4cc(CCNC[C@H](O)c5ccc(O)c6[nH]c(=O)sc56)ccc4F)CC3)C2)s1 [Example 29, (R)-7-(2-(4-Fluoro-3-((4-(5-methylthiophene-2-carbonyl)-1-oxa-4,9-diazaspiro[5.5]undecan-9-yl)methyl)phenethylamino)-1-hydroxyethyl)-4-hydroxybenzo[d]thiazol-2(3H)-one ditrifluoroacetate]	3.98 nM	1.58 nM	1
COC(=O)c1ccc(C(=O)N2CCOC3(CCN(Cc4cccc(CCNC[C@H](O)c5ccc(O)c6[nH]c(=O)sc56)c4)CC3)C2)s1 [Example 30, (R)-methyl 5-(9-(3-(2-(2-hydroxy-2-(4-hydroxy-2-oxo-2,3-dihydrobenzo[d]thiazol-7-yl)ethylamino)ethyl)benzyl)-1-oxa-4,9-diazaspiro[5.5]undecane-4-carbonyl)thiophene-2-carboxylate ditrifluoroacetate]	15.8 nM	2.51 nM	0.9
COC(=O)c1ccc(C(=O)N2CCOC3(CCN(Cc4cccc(CCNC[C@H](O)c5ccc(O)c6[nH]c(=O)ccc56)c4)CC3)C2)s1 [Example 31, (R)-Methyl 5-(9-(3-(2-(2-hydroxy-2-(8-hydroxy-2-oxo-1,2-dihydroquinolin-5-yl)ethylamino)ethyl)benzyl)-1-oxa-4,9-diazaspiro[5.5]undecane-4-carbonyl)thiophene-2-carboxylate ditrifluoroacetate]	63.1 nM	5.01 nM	0.9
Cc1ccc(C(=O)N2CCOC3(CCN(Cc4cc(CCNC[C@H](O)c5ccc(O)c6[nH]c(=O)sc56)cc(F)c4F)CC3)C2)s1 [Example 32, (R)-7-(2-(3,4-Difluoro-5-((4-(5-methylthiophene-2-carbonyl)-1-oxa-4,9-diazaspiro[5.5]undecan-9-yl)methyl)phenethylamino)-1-hydroxyethyl)-4-hydroxybenzo[d]thiazol-2(3H)-one ditrifluoroacetate]	39.8 nM	3.16 nM	1.1
Cc1ccc(C(=O)N2CCOC3(CN(Cc4cccc(CCNC[C@H](O)c5ccc(O)c6[nH]c(=O)sc56)c4)C3)C2)s1 [Example 33, (R)-4-Hydroxy-7-(1-hydroxy-2-(3-((8-(5-methylthiophene-2-carbonyl)-5-oxa-2,8-diazaspiro[3.5]nonan-2-yl)methyl)phenethylamino)ethyl)benzo[d]thiazol-2(3H)-one ditrifluoroacetate]	12.6 nM	6.31 nM	1
Cc1ccc(C(=O)N2CCOC3(CCN(Cc4ccc(F)c(CCNC[C@H](O)c5ccc(O)c6[nH]c(=O)sc56)c4F)CC3)C2)s1 [Example 34, (R)-7-(2-(2,6-Difluoro-3-((4-(5-methylthiophene-2-carbonyl)-1-oxa-4,9-diazaspiro[5.5]undecan-9-yl)methyl)phenethylamino)-1-hydroxyethyl)-4-hydroxybenzo[d]thiazol-2(3H)-one ditrifluoroacetate]	20 nM	3.16 nM	1
Cc1ccc(C(=O)N2CCOC3(CCN(Cc4ccc(F)c(CCNC[C@H](O)c5ccc(O)c6[nH]c(=O)ccc56)c4F)CC3)C2)s1 [Example 35, (R)-5-(2-(2,6-Difluoro-3-((4-(5-methylthiophene-2-carbonyl)-1-oxa-4,9-diazaspiro[5.5]undecan-9-yl)methyl)phenethylamino)-1-hydroxyethyl)-8-hydroxyquinolin-2(1H)-one ditrifluoroacetate]	25.1 nM	12.6 nM	1
CC(C)c1nc(C(=O)N2CCOC3(CCN(Cc4cc(CCNC[C@H](O)c5ccc(O)c6[nH]c(=O)sc56)cs4)CC3)C2)cs1 [Example 36, (R)-4-Hydroxy-7-(1-hydroxy-2-(2-(5-((4-(2-isopropylthiazole-4-carbonyl)-1-oxa-4,9-diazaspiro[5.5]undecan-9-yl)methyl)thiophen-3-yl)ethylamino)ethyl)benzo[d]thiazol-2(3H)-one ditrifluoroacetate]	0.501 nM	6.31 nM	1
Cc1ccc(C(=O)N2CC(F)(F)OC3(CCN(Cc4cccc(CCNC[C@H](O)c5ccc(O)c6[nH]c(=O)ccc56)c4)CC3)C2)s1 [Example 37, (R)-5-(2-(3-((2,2-Difluoro-4-(5-methylthiophene-2-carbonyl)-1-oxa-4,9-diazaspiro[5.5]undecan-9-yl)methyl)phenethylamino)-1-hydroxyethyl)-8-hydroxyquinolin-2(1H)-one ditrifluoroacetate]	3.16 nM	3.16 nM	0.9
Cc1ccc(C(=O)N2CCOC3(CCN(Cc4cccc(OCCNC[C@H](O)c5ccc(O)c6[nH]c(=O)sc56)c4)CC3)C2)s1 [Example 38, (R)-4-Hydroxy-7-(1-hydroxy-2-(2-(3-((4-(5-methylthiophene-2-carbonyl)-1-oxa-4,9-diazaspiro[5.5]undecan-9-yl)methyl)phenoxy)ethylamino)ethyl)benzo[d]thiazol-2(3H)-one ditrifluoroacetate]	2.51 nM	20 nM	0.8
CC(C)c1nc(C(=O)N2CCOC3(CCN(Cc4cccc(C(F)CNC[C@H](O)c5ccc(O)c6[nH]c(=O)sc56)c4)CC3)C2)cs1 (stereo partly drawn) [Example 39, 7-((1R)-2-(2-Fluoro-2-(3-((4-(2-isopropylthiazole-4-carbonyl)-1-oxa-4,9-diazaspiro[5.5]undecan-9-yl)methyl)phenyl)ethylamino)-1-hydroxyethyl)-4-hydroxybenzo[d]thiazol-2(3H)-one ditrifluoroacetate]	0.316 nM	100 nM	0.9
CC(C)c1nc(C(=O)N2CCOC3(CCN(Cc4cc(CCNC[C@H](O)c5ccc(O)c6[nH]c(=O)sc56)ccc4F)CC3)C2)cs1 [Example 40, (R)-7-(2-(4-Fluoro-3-((4-(2-isopropylthiazole-4-carbonyl)-1-oxa-4,9-diazaspiro[5.5]undecan-9-yl)methyl)phenethylamino)-1-hydroxyethyl)-4-hydroxybenzo[d]thiazol-2(3H)-one ditrifluoroacetate]	0.398 nM	12.6 nM	1.1
O=C(c1csc(-c2ccccc2)n1)N1CCOC2(CCN(Cc3cc(F)cc(CCNC[C@H](O)c4ccc(O)c5[nH]c(=O)sc45)c3)CC2)C1 [Example 41, (R)-7-(2-(3-Fluoro-5-((4-(2-phenylthiazole-4-carbonyl)-1-oxa-4,9-diazaspiro[5.5]undecan-9-yl)methyl)phenethylamino)-1-hydroxyethyl)-4-hydroxybenzo[d]thiazol-2(3H)-one ditrifluoroacetate]	126 nM	6.31 nM	1.1
CC(C)c1nc(C(=O)N2CCOC3(CCN(Cc4cc(F)cc(CCNC[C@H](O)c5ccc(O)c6[nH]c(=O)sc56)c4)CC3)C2)cs1 [Example 42, (R)-7-(2-(3-Fluoro-5-((4-(2-isopropylthiazole-4-carbonyl)-1-oxa-4,9-diazaspiro[5.5]undecan-9-yl)methyl)phenethylamino)-1-hydroxyethyl)-4-hydroxybenzo[d]thiazol-2(3H)-one ditrifluoroacetate]	0.631 nM	7.94 nM	1
